The target of test [1] is T1, 5-hydroxymethyl-dUMP N-hydrolase (Homo sapiens, UniProt O43598).
T1 sequence (O43598 whole entry): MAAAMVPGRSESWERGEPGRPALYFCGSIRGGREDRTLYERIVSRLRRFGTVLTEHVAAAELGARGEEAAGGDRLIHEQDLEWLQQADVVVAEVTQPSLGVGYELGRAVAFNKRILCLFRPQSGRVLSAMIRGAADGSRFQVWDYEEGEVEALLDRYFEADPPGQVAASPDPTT
The test is described as follows: Competitive inhibition of wild-type truncated human DNPH1 extracted from Escherichia coli BL21DE3 using hmdUMP as substrate preincubated for 30 mins followed by substrate addition measured after 60 mins in presence of NADH.

In test [2] the target is T1, 5-hydroxymethyl-dUMP N-hydrolase. The test is described as follows: Binding affinity to wild-type truncated human DNPH1 extracted from Escherichia coli BL21DE3 assessed as dissociation constant by ITC analysis.
The target is the same in test [3]. Nature of the test: Inhibition of wild-type truncated human DNPH1 extracted from Escherichia coli BL21DE3 assessed as decrease in hmdUMP hydrolysis preincubated for 30 mins followed by hmdUMP addition measured after 30 mins in presence of NADH.
Test [4] addresses T2, 5-hydroxymethyl-dUMP N-hydrolase (Homo sapiens) (UniProt O43598).
T2 sequence (whole entry): T1 sequence (O43598 whole entry)
The following applies: dose 1.0 mM, time 30.0 min.

The target of test [5] is T1, 5-hydroxymethyl-dUMP N-hydrolase. The test is described as follows: Binding affinity to DNPH1 (unknown origin) assessed as equilibrium constant.

Activity calls are given as the source filed them. No cut-off for these calls is given here.

The values below come from ChEMBL document CHEMBL6153067, “Transition State Analogs of Human DNPH1 Reveal Two Electrophile Migration Mechanisms” (J Med Chem, 2025).

As usually defined, the Ki is the dissociation constant of the complex between target and ligand, obtained from inhibition or displacement. A word on the Kd: it is the equilibrium constant for the complex coming apart. Regarding `O=P(O)(O)OC[C@H]1CNC[C@@H]1O`, the Ki in test [1] is 3.3 µM. In test [2], the Kd amounted to 1.3 µM.

As for `Nc1ncnc2c(CN3C[C@H](COP(=O)(O)O)[C@@H](O)C3)c[nH]c12`, in test [1], the Ki was found to be 2.85 µM.

As for `O=P(O)(O)OC[C@H]1CN(Cc2ccccc2)C[C@@H]1O`, the inhibition constant Ki in test [1] was over 50 µM.

As for `Nc1nc2c(CN3C[C@H](COP(=O)(O)O)[C@@H](O)C3)c[nH]c2c(=O)[nH]1`, the Ki in test [1] worked out at 6.5 µM.

On to `O=P(O)(O)OC[C@H]1CNC[C@@H]1OP(=O)(O)O`, for which, in test [1], the inhibition constant Ki was over 50 µM.

Consider `O=P(O)(O)OC[C@H]1CN(Cc2ccc(F)nc2F)C[C@@H]1O`, for which, in test [1], the Ki was 25.8 µM.

On to `O=P(O)(O)OC[C@H]1CN(Cc2cncc(CO)c2)C[C@@H]1O`, for which, in test [1], the inhibition constant Ki was found to be 3.67 µM.

For the compound `O=c1[nH]c(CN2C[C@H](COP(=O)(O)O)[C@@H](O)C2)c(CO)c(=O)[nH]1`, in test [1], the Ki is over 50 µM.

`O=P(O)(O)OC[C@H]1CN(Cc2cc(CO)c(F)nc2F)C[C@@H]1O`: the Ki in test [1] turned out to be 5.14 µM.

Broadly, the IC50 is the point on the concentration scale where inhibition reaches its midpoint. `O=c1[nH]c(=O)n([C@@H]2O[C@H](COP(=O)(O)O)[C@@H](O)[C@H]2O)cc1CO`: the concentration for half-maximal inhibition (IC50) in test [3] came to 1.3 µM. For the same compound, the Kd in test [1] turned out to be 0.6 µM. In addition, the inhibition result in test [4] was “Active; Potent Than Ump”.

As for `O=P(O)(O)OC[C@H]1NCC[C@@H]1O`, the inhibition constant (Ki) in test [1] is over 50 µM.

On to `O=c1[nH]c(=O)n([C@@H]2O[C@H](COP(=O)(O)O)[C@@H](O)[C@@H]2O)cc1CO`, for which, in test [3], the IC50 was over 100 µM. Further, the Kd in test [1] was over 50 µM.

Turning to `O=c1[nH]cccc1CN1C[C@H](COP(=O)(O)O)[C@@H](O)C1`, the Ki in test [1] stood at 36.8 µM.

Take `O=P(O)(O)OC[C@H]1CN(Cc2cccnc2)C[C@@H]1O`: the inhibitory constant (Ki) in test [1] stood at 20.7 µM.

`O=c1[nH]c(=O)n([C@H]2C[C@H](O)[C@@H](CP(=O)(O)O)O2)cc1CO`: the Kd in test [5] is 6.3 µM.

Turning to `O=c1cc(CN2C[C@H](COP(=O)(O)O)[C@@H](O)C2)[nH]c(=O)[nH]1`, the Ki in test [1] was found to be 5.17 µM.

Consider `COc1nc(OC)c(CN2C[C@H](COP(=O)(O)O)[C@@H](O)C2)cc1F`, for which the Ki in test [1] came out at 12.3 µM.

With `O=c1[nH]c(=O)n([C@@H]2O[C@H](COP(=O)(O)O)[C@@H](O)[C@@H]2F)cc1CO`, in test [3], the half-inhibitory concentration (IC50) was 1.5 µM. Further, the dissociation constant Kd in test [1] came out at 0.57 µM; in test [2], 0.43 µM. The inhibition entry in test [4] is “Active; Potent Than Ump”.

Regarding `O=P(O)(O)OC[C@H]1NC[C@H](O)[C@@H]1O`, the Ki in test [1] was over 50 µM.

Consider `O=c1[nH]cc(CN2C[C@H](COP(=O)(O)O)[C@@H](O)C2)cc1CO`, for which the inhibition constant Ki in test [1] came to 0.61 µM.
